Assay results reported in patent US7786141B2 (Vertex Pharmaceuticals Incorporated, priority 2004, dated 2010).
Where two headings read alike, the source gives them in different places.

How the values were obtained:
M4 muscarinic receptor = target: T1, M4 muscarinic receptor (Homo sapiens, UniProt P08173); test: Functional mobilization of intracellular calcium (FLIPR) in M4-CHO cells; format: cell-based
T1 construct: expressed in transfected cells; host or cells: CHO (M4-CHO)
T1 sequence (P08173 1-479): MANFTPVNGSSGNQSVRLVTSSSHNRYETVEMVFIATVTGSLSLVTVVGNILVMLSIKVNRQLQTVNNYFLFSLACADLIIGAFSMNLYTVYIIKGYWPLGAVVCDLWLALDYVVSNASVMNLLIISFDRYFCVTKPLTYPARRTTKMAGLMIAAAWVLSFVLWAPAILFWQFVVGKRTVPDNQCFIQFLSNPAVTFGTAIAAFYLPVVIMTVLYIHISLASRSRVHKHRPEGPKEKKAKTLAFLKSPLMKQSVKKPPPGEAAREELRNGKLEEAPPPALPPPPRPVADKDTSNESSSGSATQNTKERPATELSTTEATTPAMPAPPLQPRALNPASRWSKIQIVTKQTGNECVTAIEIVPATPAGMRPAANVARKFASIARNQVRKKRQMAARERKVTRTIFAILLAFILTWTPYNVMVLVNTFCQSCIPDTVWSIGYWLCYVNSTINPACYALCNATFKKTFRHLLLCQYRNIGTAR
Summary of the method: (§1)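 Measured via Fluo-3 fluorescence on a FLIPR, CHO cells with either muscarinic subtype received compound in 0.5% DMSO. Antagonism was assessed after 15 min pre-incubation followed by carbachol at each subtype's EC80; agonism from compound addition alone.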

M1 muscarinic receptor = target: T2, M1 muscarinic receptor (Homo sapiens, UniProt P11229); test: Functional mobilization of intracellular calcium (FLIPR) in M1-CHO cells; format: cell-based
T2 construct: expressed in transfected cells; host or cells: CHO (M1-CHO)
T2 sequence (P11229 1-460): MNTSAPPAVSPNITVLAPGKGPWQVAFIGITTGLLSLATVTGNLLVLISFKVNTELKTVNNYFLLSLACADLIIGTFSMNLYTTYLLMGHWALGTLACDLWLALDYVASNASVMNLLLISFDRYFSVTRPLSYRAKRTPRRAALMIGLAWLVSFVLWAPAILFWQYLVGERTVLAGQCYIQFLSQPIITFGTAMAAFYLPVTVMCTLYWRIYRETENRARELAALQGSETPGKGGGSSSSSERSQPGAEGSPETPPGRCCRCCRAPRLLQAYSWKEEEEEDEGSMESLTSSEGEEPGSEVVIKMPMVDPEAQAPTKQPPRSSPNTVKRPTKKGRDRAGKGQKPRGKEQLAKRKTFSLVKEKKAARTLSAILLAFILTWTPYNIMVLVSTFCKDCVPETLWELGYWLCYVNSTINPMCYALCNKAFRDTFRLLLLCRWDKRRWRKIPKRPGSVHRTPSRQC
Summary of the method: as §1

[1] = Table 4, 100% efficacy is the maximum response obtained with the Carbachol control
[2] = Table 4, modulating M4 receptor
[3] = Table 4, modulating M1 receptor
[4] = Table 4, M4 receptor, calcium mobilization (FLIPR)
[5] = Table 4, M1 receptor, calcium mobilization (FLIPR)
[6] = M4 receptor, calcium mobilization
[7] = M4 receptor, calcium mobilization, read-out: M4 Efficacy
[8] = M1 receptor, calcium mobilization
[9] = M1 receptor, calcium mobilization, read-out: M1 Efficacy
[10] = 100% efficacy is the maximum response obtained with the Carbachol control, Table 5

| SMILES | Emax (M4 muscarinic receptor; [1]) [%] | M4 Activity (M4 muscarinic receptor; [2]) | Emax (M1 muscarinic receptor; [1]) [%] | M1 Activity (M1 muscarinic receptor; [3]) | M4 Activity (M4 muscarinic receptor; [4]) | M1 Activity (M1 muscarinic receptor; [5]) | M4 Activity (M4 muscarinic receptor; [6]) | M1 Activity (M1 muscarinic receptor; [8]) | further results |
| --- | --- | --- | --- | --- | --- | --- | --- | --- | --- |
| COC(=O)N1CCC(N2CCC3(CC2)CN(C(C)=O)c2ccc(F)cc23)C1 (centres unmarked) [compound 771] | < 25 | x (activity was measured to be greater than 5.0 μM) | < 25 | x (activity was measured to be greater than 5.0 μM) | – | – | – | – | – |
| CCOC(=O)N1CCC(N2CCC3(CC2)CN(C(C)=O)c2c(C4CCCC4)cccc23)CC1 [compound 918] | < 25 | – | 25 to 100 | – | x (activity was measured to be greater than 5.0 μM) | x (activity was measured to be greater than 5.0 μM) | – | – | – |
| CCCC(=O)N[C@H]1CC2(CCN(C[C@@H]3C[C@H]4C=CC3C4)CC2)c2ccccc21 [compound 1016] | 25 to 100 | – | 25 to 100 | – | xxx (activity was measured to be less than 2.0 μM) | xxx (activity was measured to be less than 2.0 μM) | – | – | – |
| CC(=O)N[C@H]1CCC2(CCN(CC3CCOC3)CC2)c2ccccc21 (some centres unmarked) [compound 602] | 25 to 100 | xx (activity was measured to be between 2.0 μM and 5.0 μM) | 25 to 100 | xxx (activity was measured to be less than 2.0 μM) | – | – | – | – | – |
| Cc1ccc(N2CCC(N3CCC4(CC3)CN(C(=O)N(C)C)c3ccc(F)cc34)CC2)nn1 [compound 594] | < 25 | xx (activity was measured to be between 2.0 μM and 5.0 μM) | 25 to 100 | x (activity was measured to be greater than 5.0 μM) | – | – | – | – | – |
| CCOC(=O)N1C2CCC1CC(N1CCC3(CC1)CC(=O)Nc1ccccc13)C2 (centres unmarked) [compound 56] | – | – | – | – | – | – | xxx (activity was measured to be less than 0.1 μM) | xxx (activity was measured to be less than 0.1 μM) | Emax (M4 muscarinic receptor; [7]): 65 to 85%; Emax (M1 muscarinic receptor; [9]): 65 to 85% |
| Clc1ccc2c(c1)C1(CCO2)CCN(C2CCCCC2)CC1 [compound 276] | – | – | – | – | – | – | x (activity was measured to be greater than 1.0 μM) | xxx (activity was measured to be less than 0.1 μM) | Emax (M4 muscarinic receptor; [7]): 65 to 85%; Emax (M1 muscarinic receptor; [9]): 65 to 85% |
| CC(=O)N1CC2(CCN(C3CCC4(CC3)CC(C)=NO4)CC2)c2cc(F)ccc21 (centres unmarked) [compound 1020] | – | – | – | – | – | – | – | – | Emax (M4 muscarinic receptor; [10]): < 25%; EC50 (M4 muscarinic receptor; CHO cells expressing M4, calcium mobilization, Table 5): 2000 to 10000 nM; Emax (M1 muscarinic receptor; [10]): 25 to 100%; EC50 (M1 muscarinic receptor; CHO cells expressing M1, calcium mobilization, Table 5): 2000 to 10000 nM |
| Cc1ccc2c(c1)C1(CCN(C3CC4CCC(C4)C3)CC1)CN2 (centres unmarked) [compound 397] | – | – | – | – | – | – | – | – | EC50 (M4 muscarinic receptor; M4-CHO cells, calcium mobilization (FLIPR)): > 1000 nM; Emax (M4 muscarinic receptor; M4-CHO cells, calcium mobilization (FLIPR), read-out: M4 Efficacy): < 65%; EC50 (M1 muscarinic receptor; M1-CHO cells, calcium mobilization (FLIPR)): 100 to 1000 nM; Emax (M1 muscarinic receptor; M1-CHO cells, calcium mobilization (FLIPR), read-out: M1 Efficacy): 65 to 85% |
| CCOC(=O)N1CCC(N2CCC3(CC2)CN(c2nccs2)c2ccc(F)cc23)CC1 [compound 879] | 25 to 100 | – | 25 to 100 | – | xxx (activity was measured to be less than 2.0 μM) | xxx (activity was measured to be less than 2.0 μM) | – | – | – |
| CN(C)C(=O)N1CC2(CCN(C3CCN(C(=O)c4ccoc4)CC3)CC2)c2cc(F)ccc21 [compound 900] | < 25 | – | < 25 | – | x (activity was measured to be greater than 5.0 μM) | xx (activity was measured to be between 2.0 μM and 5.0 μM) | – | – | – |
| O=C(O)C1CC2(CCN(C3CC4CCC3C4)CC2)c2ccccc21 (centres unmarked) [compound 904] | < 25 | – | < 25 | – | x (activity was measured to be greater than 5.0 μM) | x (activity was measured to be greater than 5.0 μM) | – | – | – |
| CCOC(=O)N1C2CCC1CC(N1CCC3(CC1)CN(C(=O)O[C@@H]1CCOC1)c1ccc(F)cc13)C2 (some centres unmarked) [compound 344] | – | – | – | – | – | – | xx (activity was measured to be between 0.1 μM and 1.0 μM) | xxx (activity was measured to be less than 0.1 μM) | M4 Efficacy (M4 muscarinic receptor; [6]): x (efficacy was calculated to be less than 65%); M1 Efficacy (M1 muscarinic receptor; [8]): xx (efficacy was calculated to be between 85% and 65%) |
| CC#CC(C)OC(=O)N1CCC(N2CCC3(CC2)CN(C(C)=O)c2ccccc23)CC1 (centres unmarked) [compound 589] | < 25 | x (activity was measured to be greater than 5.0 μM) | < 25 | x (activity was measured to be greater than 5.0 μM) | – | – | – | – | – |
| COCCOC(=O)N1CCC(CN2CCC3(CC2)CN(C(C)=O)c2ccc(F)cc23)CC1 [compound 26] | – | – | – | – | – | – | xx (activity was measured to be between 0.1 μM and 1.0 μM) | xxx (activity was measured to be less than 0.1 μM) | Emax (M4 muscarinic receptor; [7]): < 65%; Emax (M1 muscarinic receptor; [9]): 65 to 85% |
| CCCC#CCOC(=O)N1CCC(N2CCC3(CC2)CN(C(C)=O)c2ccccc23)CC1 [compound 620] | < 25 | x (activity was measured to be greater than 5.0 μM) | 25 to 100 | x (activity was measured to be greater than 5.0 μM) | – | – | – | – | – |
| CC(=O)NC1CC2(CCN(C3CCCC3)CC2)c2ccccc21 (centres unmarked) [compound 922] | 25 to 100 | – | 25 to 100 | – | x (activity was measured to be greater than 5.0 μM) | x (activity was measured to be greater than 5.0 μM) | – | – | – |
| O=C1CC2(CCN(C3CCCCCC3)CC2)c2ccccc2N1 [compound 242] | – | – | – | – | – | – | xx (activity was measured to be between 0.1 μM and 1.0 μM) | xxx (activity was measured to be less than 0.1 μM) | Emax (M4 muscarinic receptor; [7]): > 85%; Emax (M1 muscarinic receptor; [9]): 65 to 85% |
| CCOC(=O)N1CCC(N2CCC3(CC2)CN(C(=O)CCC(C)=O)c2ccc(F)cc23)CC1 [compound 851] | 25 to 100 | – | 25 to 100 | – | xxx (activity was measured to be less than 2.0 μM) | xxx (activity was measured to be less than 2.0 μM) | – | – | – |
| CCCN1CCC(N2CCC3(CC2)CN(C(C)=O)c2ccc(F)cc23)CC1 [compound 699] | < 25 | x (activity was measured to be greater than 5.0 μM) | < 25 | x (activity was measured to be greater than 5.0 μM) | – | – | – | – | – |
| CC(C)OC(=O)N1C2CCC1CC(N1CCC3(CC1)C(=O)Nc1ccccc13)C2 (centres unmarked) [compound 139] | – | – | – | – | – | – | xxx (activity was measured to be less than 0.1 μM) | xxx (activity was measured to be less than 0.1 μM) | Emax (M4 muscarinic receptor; [7]): > 85%; Emax (M1 muscarinic receptor; [9]): > 85% |
| CCOC(=O)N1CCC(N2CCC3(CC2)CN(C(C)=O)c2c(-c4cccnc4)cccc23)CC1 [compound 728] | < 25 | x (activity was measured to be greater than 5.0 μM) | 25 to 100 | xx (activity was measured to be between 2.0 μM and 5.0 μM) | – | – | – | – | – |
| COCCOC(=O)N1CC2(CCN(C3CC4CCC(C3)N4C(=O)OCCOC)CC2)c2cc(F)ccc21 (centres unmarked) [compound 117] | – | – | – | – | – | – | xx (activity was measured to be between 0.1 μM and 1.0 μM) | xxx (activity was measured to be less than 0.1 μM) | Emax (M4 muscarinic receptor; [7]): < 65%; Emax (M1 muscarinic receptor; [9]): 65 to 85% |
